According to patent US6987114B1, “Antiviral pyrimidinedione derivatives and process for the preparation thereof” (Samjin Pharmaceutical Co., Ltd, priority 1999, dated 2006):
≈ marks a conversion by molar mass, not a printed value. Read-outs that look alike come from different tables or passages of the source.

Key:
HIV = assay: microbe, parasite or virus in culture; type: cell-based
Method: Anti-HIV activity tests in vitro of the compounds according to the present invention were performed as described in J. Med. Chem, 34, 357, 1991. Inhibition by the compounds of virus-induced cytotoxic effect in MT-4 cells was measured as follows.
(§1) MT-4 cells were suspended in culture media at 2.5×10^5 cells/ml and infected with 1000 CCID50 (50% cell culture infective dose) of HIV. Immediately after virus infection, 100 μl of cell suspension was brought into each well of a flat-bottomed microtitray containing various concentrations of the test compounds. After 4 or 5 days incubation at 37° C., efficacy of the compounds was determined by the MTT method. Cytotoxicity of the compounds was assessed in parallel with their antiviral activity, based on viability of mock-infected host cells as determined by the MTT method.

mock-infected MT-4 cells = assay: Cytotoxicity based on viability of mock-infected host cells (MTT method); type: cell-based
Method: as §1

[1] = HIV-infected MT-4 cells, MTT method, 4 or 5 days at 37° C.
[2] = mock-infected MT-4 cells, MTT method, 4 or 5 days at 37° C.
[3] = Human immunodeficiency virus 1, MT4, HIV-infected MT-4 cells, MTT method, 4 or 5 days at 37° C., read-out: ED50 (the source's name)
[4] = Human immunodeficiency virus 1, MT4, read-out: ED50

| Compound | ED50 (HIV; [1]) [µg/mL] | CD50 (mock-infected MT-4 cells; [2]) [µg/mL] | CD50 (mock-infected MT-4 cells) [µg/mL] | EC50 (HIV; [3]) [µg/mL] | EC50 (HIV; [4]) [µg/mL] |
| --- | --- | --- | --- | --- | --- |
| 1-(2-Naphthalenemethyl)-5-ethyl-6-(3,5-dimethylbenzoyl)-2,4-pyrimidinedione [Example 95] | 0.013 | 16.50 | – | – | – |
| 1-(2-Naphthalenemethyl)-5-ethyl-6-(3,5-dimethylphenoxy)-2,4-pyrimidinedione [Example 93] | 0.013 | 83.22 | – | – | – |
| 1-(2-Naphthalenemethyl)-5-ethyl-6-(3,5-dimethylphenyl)thio-2,4-pyrimidinedione [Example 91] | 0.004 | 1.27 | – | – | – |
| 1-(2-Naphthalenemethyl)-5-isopropyl-6-(3,5-dimethyl-benzoyl)-2,4-pyrimidinedione [Example 96] | 0.014 | 9.64 | – | – | – |
| 1-(2-Naphthalenemethyl)-5-isopropyl-6-(3,5-dimethyl-phenyl)thio-2,4-pyrimidinedione [Example 92] | 0.013 | 8.93 | – | – | – |
| 1-(Benzoxazol-2-ylmethyl)-5-isopropyl-6-(3,5-dimethyl-benzoyl-2,4-pyrimidinedione [Example 150] | 0.0031 | 7.09 | – | – | – |
| 1-(Phenacyl)-5-ethyl-6-(3,5-dimethylbenzoyl)-2,425 pyrimidinedione [Example 167] | 0.0569 | – | 43.31 | – | – |
| 1-(Phenacyl)-5-ethyl-6-(3,5-dimethylphenoxy)-2,415 pyrimidinedione [Example 165] | >58.11 | – | 58.11 | – | – |
| 1-(Phenacyl)-5-isopropyl-6-(3,5-dimethylbenzoyl)-2,430 pyrimidinedione [Example 168] | 0.0174 | – | 5.48 | – | – |
| 1-(Phenacyl)-5-isopropyl-6-(3,5-dimethylphenoxy)-2,420 pyrimidinedione [Example 166] | 0.7562 | – | >100.00 | – | – |
| Cc1cn([C@H]2C[C@H](N=[N+]=[N-])[C@@H](CO)O2)c(=O)[nH]c1=O [AZT] | 0.0015 (≈ 0.00561 µM) | 0.70 | – | – | – |
| Cc1cc(C)cc(Sc2c(C(C)C)c(=O)[nH]c(=O)n2CC2CC2)c1 [Example 2, 1-(Cyclopropyl)methyl-5-isopropyl-6-(3,5-dimethylphenyl)thio-2,4-pyrimidinedione] | – | 12.43 | – | < 0.0002 | – |
| CCc1c(Oc2cc(C)cc(C)c2)n(CC2CC2)c(=O)[nH]c1=O [Example 3, 1-(Cyclopropyl)methyl-5-ethyl-6-(3,5-dimethylphenoxy)-2,4-pyrimidinedione] | – | >100.00 | – | 0.011 (≈ 0.035 µM) | – |
| CCc1c(Sc2cc(C)cc(C)c2)n(CC2CCC2)c(=O)[nH]c1=O [Example 7, 1-(Cyclobutyl)methyl-5-ethyl-6-(3,5-dimethylphenyl)thio-2,4-pyrimidinedione] | – | 11.73 | – | 0.028 (≈ 0.0813 µM) | – |
| Cc1cc(C)cc(Sc2c(C(C)C)c(=O)[nH]c(=O)n2CC2CCC2)c1 [Example 8, 1-(Cyclobutyl)methyl-5-isopropyl-6-(3,5-dimethylphenyl)thio-2,4-pyrimidinedione] | – | 5.9 | – | 0.013 (≈ 0.0363 µM) | – |
| CCc1c(Oc2cc(C)cc(C)c2)n(CC2CCC2)c(=O)[nH]c1=O [Example 9, 1-(Cyclobutyl)methyl-5-ethyl-6-(3,5-dimethylphenoxy)-2,4-pyrimidinedione] | – | >100.00 | – | 0.0756 (≈ 0.23 µM) | – |
| Cc1cc(C)cc(Oc2c(C(C)C)c(=O)[nH]c(=O)n2CC2CCC2)c1 [Example 10, 1-(Cyclobutyl)methyl-5-isopropyl-6-(3,5-dimethylphenoxy)-2,4-pyrimidinedione] | – | 7.8 | – | 0.0147 (≈ 0.0429 µM) | – |
| CCc1c(Sc2cc(C)cc(C)c2)n(CC2CCCCC2)c(=O)[nH]c1=O [Example 13, 1-(Cyclohexyl)methyl-5-ethyl-6-(3,5-dimethylphenyl)thio-2,4-pyrimidinedione] | – | 11.10 | – | – | 0.27 (≈ 0.725 µM) |
| Cc1cc(C)cc(Sc2c(C(C)C)c(=O)[nH]c(=O)n2CC2CCCCC2)c1 [Example 14, 1-(Cyclohexyl)methyl-5-isopropyl-6-(3,5-dimethylphenyl)thio-2,4-pyrimidinedione] | – | 6.40 | – | – | 0.061 (≈ 0.158 µM) |
| CCc1c(Oc2cc(C)cc(C)c2)n(CC2CCCCC2)c(=O)[nH]c1=O [Example 15, 1-(Cyclohexyl)methyl-5-ethyl-6-(3,5-dimethylphenoxy)-2,4-pyrimidinedione] | – | 9.17 | – | – | 0.069 (≈ 0.194 µM) |
| Cc1cc(C)cc(Oc2c(C(C)C)c(=O)[nH]c(=O)n2CC2CCCCC2)c1 [Example 16, 1-(Cyclohexyl)methyl-5-isopropyl-6-(3,5-dimethylphenoxy)-2,4-pyrimidinedione] | – | 8.30 | – | – | 0.065 (≈ 0.175 µM) |
| CCc1c(Sc2cc(C)cc(C)c2)n(Cc2ccccc2)c(=O)[nH]c1=O [Example 19, 1-Benzyl-5-ethyl-6-(3,5-dimethylphenyl)thio-2,4-pyrimidine-dione] | – | 12.59 | – | 0.015 (≈ 0.0409 µM) | – |
| Cc1cc(C)cc(Sc2c(C(C)C)c(=O)[nH]c(=O)n2Cc2ccccc2)c1 [Example 20, 1-Benzyl-5-isopropyl-6-(3,5-dimethylphenyl)thio-2,4-pyrimidinedione] | – | 11.30 | – | 0.012 (≈ 0.0315 µM) | – |
| CCc1c(Oc2cc(C)cc(C)c2)n(Cc2ccccc2)c(=O)[nH]c1=O [Example 21, 1-Benzyl-5-ethyl-6-(3,5-dimethylphenoxy)-2,4-pyrimidine-dione] | – | 16.58 | – | 0.036 (≈ 0.103 µM) | – |
| Cc1cc(C)cc(Oc2c(C(C)C)c(=O)[nH]c(=O)n2Cc2ccccc2)c1 [Example 22, 1-Benzyl-5-isopropyl-6-(3,5-dimethylphenoxy)-2,4-pyrimidinedione] | – | 25.48 | – | 0.015 (≈ 0.0412 µM) | – |
| Cc1cc(C)cc(C(=O)c2c(C(C)C)c(=O)[nH]c(=O)n2Cc2ccccn2)c1 [Example 114, 1-(Pyridin-2-2-ylmethyl)-5-isopropyl-6-(3,5-dimethyl-benzoyl)-2,4-pyrimidinedione] | 0.0032 (≈ 0.00848 µM) | 24.60 | – | – | – |
| CCc1c(C(=O)c2cc(C)cc(C)c2)n(Cc2cccc(Br)n2)c(=O)[nH]c1=O [Example 129, 1-(2-Bromopyridib-6-ylmethyl)-5-ethyl-6-(3,5-dimethyl-benzoyl)-2,4-pyrimidinedione] | 0.010 (≈ 0.0226 µM) | – | 7.44 | – | – |
| CCc1c(Oc2cc(C)cc(C)c2)n(CC2CO2)c(=O)[nH]c1=O (stereo not drawn) [Example 137, 1-(2,3-Epoxypropyl)-5-ethyl-6-(3,5-dimethylphenoxy)-2,4-pyrimidinedione] | – | 40.50 | – | – | 1.25 (≈ 3.95 µM) |
| Cc1cc(C)cc(Oc2c(C(C)C)c(=O)[nH]c(=O)n2CC2CO2)c1 (stereo not drawn) [Example 138, 1-(2,3-Epoxypropyl)-5-isopropyl-6-(3,5-dimethylphenoxy)-2,4-pyrimidinedione] | – | 39.60 | – | – | 0.34 (≈ 1.03 µM) |
| CCc1c(C(=O)c2cc(C)cc(C)c2)n(CC2CO2)c(=O)[nH]c1=O (stereo not drawn) [Example 139, 1-(2,3-Epoxypropyl)-5-ethyl-6-(3,5-dimethylbenzoyl)-2,4-pyrimidinedione] | – | >100.00 | – | – | 0.34 (≈ 1.04 µM) |
